{"source": "patent US20120316199A1", "about": "“COMPOSITIONS AND METHODS FOR TREATING, CONTROLLING, REDUCING, OR AMELIORATING INFLAMMATORY PAIN” (priority 2011, published 2012)", "key": {"[1]": {"tested_on": "PGE2 release by IL-1β-induced human conjunctival fibroblasts (HConF)", "test": "IL-1β-induced PGE2 release in human conjunctival fibroblasts (ELISA)", "type": "cell-based", "conditions": "3, 10, 30, 100, 300, 1000 nM, 18 hours; ELISA (FIG. 6)", "description": "Human conjunctival fibroblasts (HConF) were seeded in 24-well plates in complete Fibroblast Medium (FM) which contained 2% fetal bovine serum (FBS) and Fibroblast Growth Supplement (FGS). After reaching confluence (about 95%), cells were conditioned in basic FM that had been supplemented with 0.5% charcoal-dextran treated fetal bovine serum (CD-FBS) and without Fibroblast Growth Supplement (FGS) for 24 hours. […] Plates were performed in triplicate. Culture media were evaluated for PGE, release by ELISA."}, "COX-2": {"tested_on": "COX-2", "test": "COX-2 protein in IL-1β-induced human conjunctival fibroblasts (Western blot)", "type": "cell-based", "conditions": "pretreated 2 h, then IL-1β 24 h; Western blot normalized to GAPDH (FIG. 7)", "description": "Cells were washed with ice-cold PBS and lysed in cell lysis buffer (62.5 mM Tris-HCl, pH 6.8, 2% sodium dodecyl sulfate (SDS), 10% glycerol). Cells were sonicated, and centrifuged at 12,000 rpm and protein concentration was determined using the Micro BCA protein assay kit. Proteins in aliquots of cell lysate (˜20 μg protein) were separated by SDS-polyacrylamide electrophoresis (SDS-PAGE) on 10% gels and transferred to PVDF membranes. Membranes were blocked with 5% BSA and exposed to mouse anti-COX-2 antibody (Caymen). The blots were washed, and exposed to horseradish peroxidase-conjugated anti-mouse secondary antibody. After washing, blots were incubated in ECL (enhanced chemiluminescence) solutions and chemiluminescent bands were visualized using the Fluor Chem imaging system (AlphaInnotech, San Leandro, Calif.). Blots were then stripped and re-probed for glyceraldehyde 3-phosphate dehydrogenase (GAPDH) (Zymed) antibody as loading controls. The experiment was repeated 3 times. Analysis of Western blot band density for COX-2 and GAPDH in captured digital images was done using the Alpha-Innotech Chemi-Imager software (Alpha Innotech; San Leandro, Calif.). Levels of COX-2 protein were normalized to GAPDH."}, "ocular signs": {"tested_on": "ocular signs", "test": "Clinical study after cataract surgery: ocular signs (biomicroscopy)", "type": "in vivo, human", "from_the_text": "There were 8 treatment groups in this study, consisting of three drug doses, vehicle and three dosing frequencies (see also Table 4-1): • Group A: 1% BOL-303242-X ophthalmic suspension, two times per day (BID) • Group B: 2% BOL-303242-X ophthalmic suspension, one time per day (QD) • Group C: 2% BOL-303242-X ophthalmic suspension, BID • Group D: 2% BOL-303242-X ophthalmic suspension, four times per day (QID) • Group E: 3% BOL-303242-X ophthalmic suspension, QD • Group F: 3% BOL-303242-X ophthalmic suspension, BID • Group G: 3% BOL-303242-X ophthalmic suspension, QID • Group H: Vehicle for BOL-303242-X (divided equally into QID, BID, and QD)\nVisit 1 (screening), Visit 2 (cataract surgery), Visit 3 (postoperative Day 1), Visit 4 (postoperative Day 3±1 day), Visit 5 (postoperative Day 8±1 day), Visit 6 (postoperative Day 15±1 day), Visit 7 (postoperative Day 18±1 day). Subject assessments included adverse events (AEs), concomitant medications, ocular symptoms, pinholed Snellen visual acuity (VA), intraocular pressure (IOP), ocular signs (biomicroscopy), fundoscopy, and study drug drop sensation. In addition, subject diaries were collected and reviewed for accuracy and treatment compliance.\nSafety: The safety endpoints in this study were: incidence of AEs, change in IOP, ocular signs (biomicroscopy), Snellen VA, fundoscopy, study drug drop sensation assessment."}, "[2]": {"tested_on": "iris and conjunctival vessels, anterior chamber", "test": "Clinical evaluation by slit lamp (clinical score), rabbit paracentesis model", "type": "in vivo, Rabbit (New Zealand)", "parameters": "key to Clinical Score −180 min / Clinical Score −5 min / Clinical Score +115 min: 0=normal; 1=discrete dilatation of iris and conjunctival vessels; 2=moderate dilatation of iris and conjunctival vessels; 3=intense iridal hyperemia with flare in the anterior chamber; 4=intense iridal hyperemia with flare in the anterior chamber and presence of fibrinous exudates", "conditions": "for Clinical Score −5 min: 5 min before the first paracentesis; for Clinical Score −5 min / Clinical Score +115 min / Clinical Score −180 min: raw data per eye; for Clinical Score +115 min: 5 min before the second paracentesis; for Clinical Score −180 min: basal"}, "[3]": {"tested_on": "IL-1β-stimulated cytokine expression in primary human corneal epithelial cells", "test": "IL-1β-stimulated cytokine production in primary human corneal epithelial cells (30-cytokine Luminex kit)", "conditions": "HCECs", "experimental": "Primary HCECs were seeded in 24-well plates. […] Each treatment was performed in triplicate. Media were collected and used for determination of cytokine content using a 30-cytokine Luminex kit. Cell viability was determined by alamarBlue assay (LP06013).\nMedian fluorescence intensity (MFI) was used to obtain the concentration of each cytokines in pg/ml based on the standard curve of each cytokine assayed by Luminex. The linear range of the standard curve for each cytokine was used for determination of cytokine concentration. Duplicate values for each sample were averaged. Data were expressed as mean±SD. Statistical analysis was performed using one-way ANOVA-Dunnett's test, and P<0.05 was considered statistically significant."}, "[4]": {"conditions": "0.1% formulation, +115 min, N=8 eyes"}, "[5]": {"conditions": "0.5% formulation, +115 min, N=8 eyes"}}, "note": "“And” between values parts separate entries of the source, which are not always exact repeats. Equal entries are not always repeated. “Also recorded” adds a separate entry of the source.", "data": [{"smiles": "Cc1ccc2c(NC[C@](O)(CC(C)(C)c3cc(F)cc4c3OCC4)C(F)(F)F)cccc2n1", "note": "[BOL-303242-X, mapracorat]", "values": [{"measurement": "Inhibition of PGE2 production by IL-1β-induced HConF", "setting": "[1]", "result": "successfully inhibits"}, {"measurement": "Inhibition of COX-2 production by IL-1β-induced HConF", "setting": "COX-2", "result": "inhibition of COX-2 production; also recorded: successfully inhibits"}, {"measurement": "proportions of subjects with increases in scores for anterior vitreous haze, corneal edema, corneal staining, eyelid erythema, hyphema, and posterior synechiae", "setting": "ocular signs; any dose groups at any postoperative visits", "result": "No statistically significant differences"}, {"measurement": "proportions of subjects with increases in scores for AC cells, AC flare, bulbar conjunctival injection, chemosis, ciliary flush, palpebral conjunctival injection", "setting": "ocular signs; certain dose groups at Visits 4, 5, 7 as listed", "result": "statistically significantly lower proportions of subjects with increases in scores"}, {"measurement": "Clinical Score −5 min", "setting": "[2]; 0.1% formulation", "result": 0}, {"measurement": "Clinical Score +115 min", "setting": "[2]; 0.1% formulation, listed as BOL", "result": "2 and 3"}, {"measurement": "Percentage of eyes with clinical score 2", "setting": "[2]; [4]", "result": 75, "unit": "%"}, {"measurement": "Percentage of eyes with clinical score 3", "setting": "[2]; [4]", "result": 25, "unit": "%"}, {"measurement": "Clinical Score −180 min", "setting": "[2]; 0.1% formulation", "result": 0}, {"measurement": "Percentage of eyes with clinical score 0", "setting": "[2]; 0.1% formulation, −5 min, N=8 eyes", "result": 100, "unit": "%"}, {"measurement": "Percentage of eyes with clinical score 0", "setting": "[2]; 0.1% formulation, −180 min (basal), N=8 eyes", "result": 100, "unit": "%"}, {"measurement": "Clinical Score −5 min", "setting": "[2]; 0.5% formulation", "result": 0}, {"measurement": "Clinical Score +115 min", "setting": "[2]; 0.5% formulation, listed as BOL", "result": "2 and 1"}, {"measurement": "Percentage of eyes with clinical score 1", "setting": "[2]; [5]", "result": 37.5, "unit": "%"}, {"measurement": "Percentage of eyes with clinical score 2", "setting": "[2]; [5]", "result": 62.5, "unit": "%"}, {"measurement": "Clinical Score −180 min", "setting": "[2]; 0.5% formulation", "result": 0}, {"measurement": "Percentage of eyes with clinical score 0", "setting": "[2]; 0.5% formulation, −5 min, N=8 eyes", "result": 100, "unit": "%"}, {"measurement": "Percentage of eyes with clinical score 0", "setting": "[2]; 0.5% formulation, −180 min (basal), N=8 eyes", "result": 100, "unit": "%"}, {"measurement": "Clinical Score −5 min", "setting": "[2]; 1% formulation", "result": 0}, {"measurement": "Clinical Score +115 min", "setting": "[2]; 1% formulation", "result": 2}, {"measurement": "Percentage of eyes with clinical score 2", "setting": "[2]; 1% formulation, +115 min, N=8 eyes", "result": 100, "unit": "%"}, {"measurement": "Clinical Score −180 min", "setting": "[2]; 1% formulation", "result": 0}, {"measurement": "Percentage of eyes with clinical score 0", "setting": "[2]; 1% formulation, −5 min, N=8 eyes", "result": 100, "unit": "%"}, {"measurement": "Percentage of eyes with clinical score 0", "setting": "[2]; 1% formulation, −180 min (basal), N=8 eyes", "result": 100, "unit": "%"}, {"measurement": "Potency relative to dexamethasone, inhibition of IL-1β-stimulated IL-6, IL-7, TGF-α, TNF-α, VGEF, and MCP-1", "setting": "[3]", "result": "comparable potency"}, {"measurement": "Potency relative to dexamethasone, inhibition of IL-1β-stimulated production of G-CSF", "setting": "[3]", "result": "more potent than dexamethasone"}, {"measurement": "Potency relative to dexamethasone, inhibition of IL-1β-stimulated production of GM-CSF, IL-8, and RANTES", "setting": "[3]", "result": "somewhat less potent than dexamethasone"}, {"measurement": "Inhibition of IL-1β-stimulated production of IL-6, IL-7, MCP-1, TGF-α, TNF-α and VEGF", "setting": "[3]; 10 ng/ml IL-1β, 18 h, comparable potency of both compounds", "result": "significantly inhibited"}, {"measurement": "Effect on IL-1β-stimulated G-CSF production", "setting": "[3]; 18 h", "result": "significantly inhibited"}, {"measurement": "Inhibition of IL-1β-stimulated production of GM-CSF, IL-8, and RANTES", "setting": "[3]; 18 h, less potency compared to dexamethasone", "result": "significantly inhibited"}]}]}
